Results as given in publication PMC11995724, “Antibiotic target discovery by integrated phenotypic and activity-based profiling of electrophilic fragments” (Cell chemical biology, 2025).

Test: in vitro
Conditions: human, hek293t cells

Structure (SMILES) | viability at 48 h, 25 µM [%]
C=CC(=O)N1CCC(NC(=O)Nc2ccccc2OC)CC1 [1-K13, 3-(2-methoxyphenyl)-1-[1-(prop-2-enoyl)piperidin-4-yl]urea] | 106
C=CC(=O)Nc1cccc(-c2cn(C)nn2)c1 [1-K14, N-[3-(1-methyl-1H-1,2,3-triazol-4-yl)phenyl]prop-2-enamide] | 82.8
C=CC(=O)Nc1ccc(C(=O)Nc2ccc(N3CCOCC3)nc2)cc1 [1-K15, N-[6-(morpholin-4-yl)pyridin-3-yl]-4-(prop-2-enamido)benzamide] | 1.79
C=CC(=O)Nc1ccc(-c2noc(C)n2)cc1 [1-K16, N-[4-(5-methyl-1,2,4-oxadiazol-3-yl)phenyl]prop-2-enamide] | 60.2
C=CC(=O)NC12CC3(C)CC(C)(CC(O)(C3)C1)C2 [1-K17, N-(3-hydroxy-5,7-dimethyladamantan-1-yl)prop-2-enamide] | 85.3
C=CC(=O)NC1CCN(S(N)(=O)=O)CC1 [1-K18, N-(1-sulfamoylpiperidin-4-yl)prop-2-enamide] | 93.7
C=CC(=O)Nc1cc(-c2ccco2)nn1C(C)(C)C [1-K19, N-[1-tert-butyl-3-(furan-2-yl)-1H-pyrazol-5-yl]prop-2-enamide] | 118
C=CC(=O)N1CC(c2cc(CO)on2)C1 [1-K20, 1-{3-[5-(hydroxymethyl)-1,2-oxazol-3-yl]azetidin-1-yl}prop-2-en-1-one] | 103
C=CC(=O)NCC(CC)n1nc(C)cc1C (stereo not shown) [1-K21, N-[2-(3,5-dimethyl-1H-pyrazol-1-yl)butyl]prop-2-enamide] | 108
C=CC(=O)N1CCC(n2ncc3ccccc32)CC1 [1-K22, 1-[4-(1H-indazol-1-yl)piperidin-1-yl]prop-2-en-1-one] | 94.9
C=CC(=O)NC1CCN(c2nc(C3CC3)cc(C(F)(F)F)n2)CC1 [1-L03, N-{1-[4-cyclopropyl-6-(trifluoromethyl)pyrimidin-2-yl]piperidin-4-yl}prop-2-enamide] | 108
C=CC(=O)N1CCC(C(=O)NC(C)(C)c2ccc(F)c(F)c2)CC1 [1-L04, N-[2-(3,4-difluorophenyl)propan-2-yl]-1-(prop-2-enoyl)piperidine-4-carboxamide] | 91.1
C=CC(=O)NCc1cc(Cl)c2c(c1)OCCO2 [1-L05, N-[(8-chloro-2,3-dihydro-1,4-benzodioxin-6-yl)methyl]prop-2-enamide] | 112
C=CC(=O)NCCc1cnc2c(Cl)cnn2c1 [1-L06, N-(2-{3-chloropyrazolo[1,5-a]pyrimidin-6-yl}ethyl)prop-2-enamide] | 74.5
C=CC(=O)N1CCC(OC2CCCC2)CC1 [1-L07, 1-[4-(cyclopentyloxy)piperidin-1-yl]prop-2-en-1-one] | 96.8
C=CC(=O)N1CCOC2(CCCCCC2)C1 [1-L08, 1-{1-oxa-4-azaspiro[5.6]dodecan-4-yl}prop-2-en-1-one] | 73.9
C=CC(=O)N(Cc1ccc2c(c1)CCC2)Cc1c(C)noc1C [1-L09, N-[(2,3-dihydro-1H-inden-5-yl)methyl]-N-[(3,5-dimethyl-1,2-oxazol-4-yl)methyl]prop-2-enamide] | 92.1
C=CC(=O)NCc1cc(C2CC2)nn1C [1-L10, N-[(3-cyclopropyl-1-methyl-1H-pyrazol-5-yl)methyl]prop-2-enamide] | 92.5
C=CC(=O)NCC(=O)Nc1ccc2c[nH]nc2c1 [1-L11, N-{[(2H-indazol-6-yl)carbamoyl]methyl}prop-2-enamide] | 89.7
C=CC(=O)N1CCOCC1c1ncnn1Cc1ccccc1 (stereo not shown) [1-L12, 1-[3-(1-benzyl-1H-1,2,4-triazol-5-yl)morpholin-4-yl]prop-2-en-1-one] | 63.7
C=CC(=O)N(Cc1cc(F)c(F)c(F)c1)C(C)C1CCCO1 (stereo not shown) [1-L13, N-[1-(oxolan-2-yl)ethyl]-N-[(3,4,5-trifluorophenyl)methyl]prop-2-enamide] | 176
C=CC(=O)N1CC(C)(C)c2cc(Cl)ccc21 [1-L14, 1-(5-chloro-3,3-dimethyl-2,3-dihydro-1H-indol-1-yl)prop-2-en-1-one] | 1.22
C=CC(=O)N(Cc1cccs1)C1CCc2cnn(C(C)C)c2C1 (stereo not shown) [1-L15, N-[1-(propan-2-yl)-4,5,6,7-tetrahydro-1H-indazol-6-yl]-N-[(thiophen-2-yl)methyl]prop-2-enamide] | 82.3
C=CC(=O)N(C)Cc1ccn(CC)n1 [1-L16, N-[(1-ethyl-1H-pyrazol-3-yl)methyl]-N-methylprop-2-enamide] | 75.2
C=CC(=O)NCc1ccc(C(=O)N2CCOCC2)cc1 [1-L17, N-{[4-(morpholine-4-carbonyl)phenyl]methyl}prop-2-enamide] | 81.2
C=CC(=O)N1CCC[C@H]1Cn1cc(C2CC2)nn1 [1-L18, 1-[(2S)-2-[(4-cyclopropyl-1H-1,2,3-triazol-1-yl)methyl]pyrrolidin-1-yl]prop-2-en-1-one] | 92.2
C=CC(=O)N1CCCc2cccc(F)c21 [1-L19, 1-(8-fluoro-1,2,3,4-tetrahydroquinolin-1-yl)prop-2-en-1-one] | 112
C=CC(=O)N1CCCC(Cc2noc(C)n2)C1 (stereo not shown) [1-L20, 1-{3-[(5-methyl-1,2,4-oxadiazol-3-yl)methyl]piperidin-1-yl}prop-2-en-1-one] | 72.5

Structure (SMILES) | viability at 48 h, 25 µM [%]
C=CC(=O)Nc1ccc2ccn(CCN(C)C)c2c1 [1-L21, N-{1-[2-(dimethylamino)ethyl]-1H-indol-6-yl}prop-2-enamide] | 113
C=CC(=O)N1CC(NC(=O)c2ccoc2CC)C(C)(C)C1 (stereo not shown) [1-L22, N-[4,4-dimethyl-1-(prop-2-enoyl)pyrrolidin-3-yl]-2-ethylfuran-3-carboxamide] | 71.3
C=CC(=O)NCc1cnc(N2CCOCC2)s1 [1-M03, N-{[2-(morpholin-4-yl)-1,3-thiazol-5-yl]methyl}prop-2-enamide] | 86.3
C=CC(=O)NC1(c2cccc(F)c2)CCOCC1 [1-M04, N-[4-(3-fluorophenyl)oxan-4-yl]prop-2-enamide] | 71.1
C=CC(=O)Nc1ccccc1-c1nnnn1C [1-M05, N-[2-(1-methyl-1H-1,2,3,4-tetrazol-5-yl)phenyl]prop-2-enamide] | 79.7
C=CC(=O)NCCc1coc(-c2ccc(C)cc2)n1 [1-M06, N-{2-[2-(4-methylphenyl)-1,3-oxazol-4-yl]ethyl}prop-2-enamide] | 68.3
C=CC(=O)NCc1ccc(-n2cccn2)cc1 [1-M07, N-{[4-(1H-pyrazol-1-yl)phenyl]methyl}prop-2-enamide] | 81.4
C=CC(=O)NC1CCC(OCc2cc(C)no2)CC1 (stereo not shown) [1-M08, N-{4-[(3-methyl-1,2-oxazol-5-yl)methoxy]cyclohexyl}prop-2-enamide] | 86.5
C=CC(=O)NC(C)c1nnnn1C1CC1 (stereo not shown) [1-M09, N-[1-(1-cyclopropyl-1H-1,2,3,4-tetrazol-5-yl)ethyl]prop-2-enamide] | 82.7
C=CC(=O)N(CCO)c1ccc(C(=O)O)cc1 [1-M10, 4-[N-(2-hydroxyethyl)prop-2-enamido]benzoic acid] | 96.4
C=CC(=O)NCc1ccnc(N2CCN(c3ccc(F)cc3)CC2)c1 [1-M11, N-({2-[4-(4-fluorophenyl)piperazin-1-yl]pyridin-4-yl}methyl)prop-2-enamide] | 71.6
C=CC(=O)Nc1ncccn1 [1-M12, N-(pyrimidin-2-yl)prop-2-enamide] | 71.5
C=CC(=O)Nc1cc2c(cc1Sc1ccccc1)OCCO2 [1-M13, N-[7-(phenylsulfanyl)-2,3-dihydro-1,4-benzodioxin-6-yl]prop-2-enamide] | 82.4
C=CC(=O)NCc1cccc(-n2cccn2)n1 [1-M14, N-{[6-(1H-pyrazol-1-yl)pyridin-2-yl]methyl}prop-2-enamide] | 93.2
C=CC(=O)Nc1ccccc1C1CC1(F)F (stereo not shown) [1-M15, N-[2-(2,2-difluorocyclopropyl)phenyl]prop-2-enamide] | 86.4
C=CC(=O)Nc1cccc(C(O)C(F)(F)F)c1 (stereo not shown) [1-M16, N-[3-(2,2,2-trifluoro-1-hydroxyethyl)phenyl]prop-2-enamide] | 102
C=CC(=O)NCC1CCCC(C2CC2)O1 (stereo not shown) [1-M17, N-[(6-cyclopropyloxan-2-yl)methyl]prop-2-enamide] | 88.7
C=CC(=O)NCc1ccc(-n2ccnc2)cc1 [1-M18, N-{[4-(1H-imidazol-1-yl)phenyl]methyl}prop-2-enamide] | 90.9
C=CC(=O)Nc1c(C)cnn1CC1CC1 [1-M19, N-[1-(cyclopropylmethyl)-4-methyl-1H-pyrazol-5-yl]prop-2-enamide] | 94.9
C=CC(=O)Nc1ccc(C(=O)C(F)F)cc1 [1-M20, N-[4-(2,2-difluoroacetyl)phenyl]prop-2-enamide] | 104
C=CC(=O)Nc1ncnc2c1cnn2Cc1cccc(C)c1 [1-M21, N-{1-[(3-methylphenyl)methyl]-1H-pyrazolo[3,4-d]pyrimidin-4-yl}prop-2-enamide] | 100
C=CC(=O)NCc1nnnn1-c1ccc(F)cc1 [1-M22, N-{[1-(4-fluorophenyl)-1H-1,2,3,4-tetrazol-5-yl]methyl}prop-2-enamide] | 106
C=CC(=O)NCc1ccccc1S(=O)(=O)NC [1-N03, N-{[2-(methylsulfamoyl)phenyl]methyl}prop-2-enamide] | 92.3
C=CC(=O)NC(C)c1cn(-c2ccccc2)nn1 (stereo not shown) [1-N04, N-[1-(1-phenyl-1H-1,2,3-triazol-4-yl)ethyl]prop-2-enamide] | 78.9
C=CC(=O)N1CCc2c(nnn2CCOC)C1 [1-N05, 1-[1-(2-methoxyethyl)-1H,4H,5H,6H,7H-[1,2,3]triazolo[4,5-c]pyridin-5-yl]prop-2-en-1-one] | 105
C=CC(=O)NCc1conc1C1CCC1 [1-N06, N-[(3-cyclobutyl-1,2-oxazol-4-yl)methyl]prop-2-enamide] | 69.5
C=CC(=O)NCCc1c(C)oc2ccccc12 [1-N07, N-[2-(2-methyl-1-benzofuran-3-yl)ethyl]prop-2-enamide] | 119
